Experimental data: patent US20220401514A1, “ANTIMICROBIAL, BACTERIOPHAGE-DERIVED POLYPEPTIDES AND THEIR USE AGAINST GRAM-NEGATIVE AND ACID-FAST BACTERIA” (CONTRAFECT CORPORATION, priority 2019, published 2022)
Read-outs that look alike come from different tables or passages of the source.

Experiments:
[1] = system: M. kansasii Hauduroy ATCC 12478; experiment: 45 hr MIC against M. kansasii (NTM), Mueller Hinton broth; type: cell-based, Mycobacterium kansasii
[2] = system: Acinetobacter baumannii; experiment: microbe, parasite or virus in culture; type: cell-based; conditions: for MIC50 / MIC100 / MIC Range: A. baumannii isolates (n per peptide in table); for MIC: Acinetobacter baumannii ATCC BAA 747, CAA supplemented with human serum
[3] = system: M. avium; experiment: 45 hr MIC against M. avium (NTM); type: cell-based, Mycobacterium avium; conditions: M. avium Chester ATCC 700898
[4] = system: M. smegmatis; experiment: 45 hr MIC against M. smegmatis (NTM), Mueller Hinton broth; type: cell-based, Mycobacterium smegmatis
[5] = system: M. scrofulaceum; experiment: 45 hr MIC against M. scrofulaceum (NTM); type: cell-based, Mycobacterium scrofulaceum; conditions: M. scrofulaceum Prissick and Masson ATCC 19981
[6] = system: Enterobacter cloacae; experiment: microbe, parasite or virus in culture; type: cell-based; conditions: for MIC50 / MIC100 / MIC Range: E. cloacae isolates (n per peptide in table); for MIC: Enterobacter cloacae ATCC 13047, CAA supplemented with human serum
Summary of the method: (§1)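 CAA + human serum as test medium; MIC read as lowest peptide concentration inhibiting growth.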

[7] = system: Escherichia coli; experiment: microbe, parasite or virus in culture; type: cell-based; conditions: for MIC50 / MIC100 / MIC Range: E. coli isolates (n per peptide in table); for MIC: Escherichia coli ATCC 25922, CAA supplemented with human serum
Summary of the method: as §1

[8] = system: Pseudomonas aeruginosa; experiment: microbe, parasite or virus in culture; type: cell-based; conditions: P. aeruginosa isolates (n per peptide in table)
[9] = system: carbapenem-resistant P. aeruginosa clinical isolate CFS-1292; experiment: MIC by modified CLSI broth microdilution against P. aeruginosa CFS-1292 (CAA, CAA + human serum); type: cell-based, Pseudomonas aeruginosa; conditions: for MIC (μg/mL) against CFS-1292 in 100% CAA (1st run/2nd run): 1st run or single value
[10] = system: S. maltophilia; experiment: MIC against S. maltophilia isolates; type: cell-based, Stenotrophomonas maltophilia; conditions: S. maltophilia isolates (n per peptide in table)
Procedure: (§2) Determination of Minimal Inhibitory Concentrations (MIC).
In addition to the results discussed above in Example 3, further testing was conducted on several Chp peptides. MIC values were determined against different species, including P. aeruginosa, K. pneumoniae, A. baumannii, E. cloacae, E. coli, and S. maltophilia, and the results are presented below in Tables 40-45, wherein n=number of isolates tested for each species and MIC is measured as μg/mL.

[11] = system: Mycobacterium tuberculosis strains
Procedure: MIC values for various Chp peptides were determined using the CLSI method for broth microdilution in 96-well microtiter format.
Next, MIC values for various Chp peptides were determined using the CLSI method above for broth microdilution in 96-well microtiter format for two different Mycobacterium tuberculosis strains. The MIC was determined as explained above for the NTM strains.

[12] = system: Klebsiella pneumoniae; type: cell-based; conditions: for MIC50 / MIC100 / MIC Range: K. pneumoniae isolates (n per peptide in table); for MIC: Klebsiella pneumoniae HM-44, CAA supplemented with human serum
Procedure: as §2
Additional MIC testing was performed for several peptides against the ESKAPE pathogens Escherichia coli, Enterobacter cloacae, Klebsiella pneumoniae, and Acinetobacter baumannii, in CAA supplemented with human serum (Table D).

[13] = system: carbapenem-resistant bacterial strains; experiment: organism not typed; type: cell-based
From the text: as §2

[14] = system: M. fortuitum; experiment: 45 hr MIC against M. fortuitum (NTM); type: cell-based, Mycobacterium fortuitum; conditions: M. fortuitum subsp. Fortuitum da Costa Cruz. ATCC 6841
[15] = system: M. intracellulare; experiment: 45 hr MIC against M. intracellulare (NTM); type: cell-based, Mycobacterium intracellulare; conditions: M. intracellulare (Cuttino and McCabe) Runyon ATCC 13950
[16] = Stability assessment in 100% CAA; type: in vitro ADME; design: unit not given beside the values
Procedure: Stability was assessed after incubation in 100% human serum at 37° C. after 10 minutes, 1 hour, and 2 hours.
Stability assessment was further conducted in 100% CAA and rabbit serum using the same methodology discussed above.

[17] = Mycobacterium tuberculosis (Zopf) Lehmann and Neumann ATCC 25177
[18] = Mycobacterium tuberculosis (Zopf) Lehmann and Neumann ATCC 35817
[19] = carbapenem-resistant isolate PA19
[20] = carbapenem-resistant isolate PA20
[21] = carbapenem-resistant isolate PA21
[22] = carbapenem-resistant isolate PA22
[23] = carbapenem-resistant isolate PA23
[24] = carbapenem-resistant isolate PA24
[25] = carbapenem-resistant isolate WLC-452

| Sequence | 45 hr MIC [1] | MIC50 [2] | MIC100 [2] | MIC Range [2] | MIC [2] | 45 hr MIC [3] | 45 hr MIC ([4]; M. smegmatis MC^2 155, Run #1) | 45 hr MIC ([4]; M. smegmatis MC^2 155, Run #2) | 45 hr MIC [5] | MIC50 [6] | MIC100 [6] | MIC [6] | MIC50 [7] | MIC100 [7] | MIC Range [7] | MIC [7] | MIC50 [8] | MIC100 [8] | MIC (μg/mL) against CFS-1292 in 100% CAA (1st run/2nd run) [9] | MIC50 [10] | also measured |
| --- | --- | --- | --- | --- | --- | --- | --- | --- | --- | --- | --- | --- | --- | --- | --- | --- | --- | --- | --- | --- | --- |
| MRRPRKMNYKKSKRMFSRTAARTHRKNSLRGSRPMRGGIRL [Gkh1] | 2 µg/mL | 0.5 µg/mL | 1 µg/mL | 0.25 to 2 µg/mL | 2 µg/mL | 4 µg/mL | 4 µg/mL | 4 µg/mL | 8 µg/mL | 1 µg/mL | 2 µg/mL | 32 µg/mL | 2 µg/mL | 2 µg/mL | 0.5 to 8 µg/mL | 1 µg/mL | 8 µg/mL | >8 µg/mL | 1 µg/mL | >8 µg/mL | MIC Range [6]: 0.5 to 8 µg/mL; MIC (μg/mL) against CFS-1292 in CAA + […] human serum [9]: 1 µg/mL; MIC100 [10]: >8 µg/mL; MIC [11, 17]: 32 µg/mL; MIC [11, 18]: 4 µg/mL; MIC50 [12]: 4 µg/mL; MIC100 [12]: 8 µg/mL; MIC Range [12]: 1 to 8 µg/mL; MIC [12]: 0.5 µg/mL; MIC [13, 19]: 2 µg/mL; MIC [13, 20]: >8 µg/mL; MIC [13, 21]: >8 µg/mL; MIC [13, 22]: >8 µg/mL; MIC [13, 23]: >8 µg/mL; MIC [13, 24]: 8 µg/mL; MIC [13, 25]: 2 µg/mL; 45 hr MIC [14]: 1 µg/mL; 45 hr MIC [15]: 4 µg/mL; MIC (100% CAA) [16]: 0.5 |
| MSKKRSRMSRRRSKKLFSKTALRTKSVNTRPPMRGGFRF [Chp8] | 4 µg/mL | 0.5 µg/mL | 1 µg/mL | 0.25 to 2 µg/mL | 2 µg/mL | 8 µg/mL | 4 µg/mL | 8 µg/mL | 4 µg/mL | 2 µg/mL | 4 µg/mL | 16 µg/mL | 2 µg/mL | 4 µg/mL | 0.5 to 4 µg/mL | 0.5 µg/mL | 8 µg/mL | >8 µg/mL | 0.5 µg/mL | >8 µg/mL | MIC Range [6]: 1 to 8 µg/mL; MIC (μg/mL) against CFS-1292 in CAA + […] human serum [9]: 2 µg/mL; MIC100 [10]: >8 µg/mL; MIC [11, 17]: 32 µg/mL; MIC [11, 18]: 8 µg/mL; MIC50 [12]: 4 µg/mL; MIC100 [12]: 8 µg/mL; MIC Range [12]: 2 to 8 µg/mL; MIC [12]: 4 µg/mL; MIC [13, 19]: 1 µg/mL; MIC [13, 20]: >8 µg/mL; MIC [13, 21]: >8 µg/mL; MIC [13, 22]: >8 µg/mL; MIC [13, 23]: >8 µg/mL; MIC [13, 24]: 8 µg/mL; MIC [13, 25]: 4 µg/mL; 45 hr MIC [14]: 2 µg/mL; 45 hr MIC [15]: 4 µg/mL; MIC (100% CAA) [16]: 0.5 |
| MSLRRHKLSRKASKRIFRKGASRTKTLNTRATPMRGGFRI [Chp9] | 8 µg/mL | 2 µg/mL | 2 µg/mL | 0.5 to 2 µg/mL | 4 µg/mL | >64 µg/mL | 4 µg/mL | 8 µg/mL | 8 µg/mL | 4 µg/mL | >8 µg/mL | 32 µg/mL | 2 µg/mL | 8 µg/mL | 0.5 to 8 µg/mL | 1 µg/mL | >8 µg/mL | >8 µg/mL | 8 µg/mL | >8 µg/mL | MIC100 [10]: >8 µg/mL; MIC [11, 17]: 32 µg/mL; MIC [11, 18]: 16 µg/mL; MIC50 [12]: >8 µg/mL; MIC100 [12]: >8 µg/mL; MIC Range [12]: >8 µg/mL; MIC [12]: 1 µg/mL; MIC [13, 19]: 8 µg/mL; MIC [13, 20]: >8 µg/mL; MIC [13, 21]: >8 µg/mL; MIC [13, 22]: >8 µg/mL; MIC [13, 23]: >8 µg/mL; MIC [13, 24]: >8 µg/mL; MIC [13, 25]: 8 µg/mL; 45 hr MIC [14]: 4 µg/mL; 45 hr MIC [15]: 4 µg/mL; MIC (100% CAA) [16]: 2 |
